Where “and” joins values, the source holds several entries; their conditions need not be identical. Identical values can stand only once.
How the values were obtained:
HIV-1 strain NL4-3 [1] = assay: Anti-HIV-1 luciferase indicator assay in MT2 cells, NL4-3; format: cell-based; details: viral strain NL4-3
Procedure: (§1) Compound was dissolved in DMSO to make 30 mM stock. Then the 30 mM stock is further diluted to 4 mM using DMSO. The 4 mM stock was used as the top concentration to carry out an 11-point, 3-fold dilution scheme using DMSO in a 96-well plate to make the compound dose plate. Compounds in the dose plate were transferred to a new 96-well plate (working plate) containing PBS with 0.05% pluronic acid. From this working plate, the compound solution was transferred to the 384-well assay plates.
(§2) Control compounds used in compound control wells were prepared and added to assay plates individually.
(§3) MT2 cells were mixed with HIV-1 strain NL4-3 (or IIIB, or CNHN24) and the cell/virus mixture was added to the aforementioned antivirus assay plates. After incubation in a 37° C., 5% CO2 incubator, the supernatant from the assay plate was transferred to a new 384-well plate containing the indicator cells with a fire fly luciferase gene under HIV-1 LTR control. The expression level of luciferase was related to HIV-1 infectivity and was measured by Bright-Glo kit (Promega).
(§4) Therapeutic index (TI) was determined by taking ratio of CC50/IC50

HIV-1 strain IIIB [2] = assay: Anti-HIV-1 luciferase indicator assay in MT2 cells, IIIB; format: cell-based; details: viral strain II B; for IC50: read-out: IC50
Procedure: as §1, §2, §3, §4

HIV-1 strain CNHN24 [3] = assay: Anti-HIV-1 luciferase indicator assay in MT2 cells, CNHN24; format: cell-based; details: viral strain CNHN24; for IC50: read-out: IC50
Procedure: as §1, §2, §3, §4

in vitro [4] = format: cell-based; details: human, CC50
Procedure: as §1
(§5) For cytotoxicity assay the same amount of MT2 cells as in antivirus assay but without HIV-1 virus were added to the cytotoxicity plates. The cytotoxicity was measured by Cell Titer-Glo cell viability assay (Promega).

MT2 cells = assay: in vitro; format: cell-based; details: human
Procedure: as §1, §5

HIV-1 strain NL4-3 [5] = assay: Anti-HIV-1 luciferase indicator assay in PBMC cells, NL4-3; format: cell-based; details: Human immunodeficiency virus 1, NL43, viral strain NL4-3
Procedure: as §1, with “stock was” for “stock is”, “working plate” for “working plate,”
(§6) Control compounds for cpd control wells were prepared and added to assay plates individually.
(§7) PBMC cells were isolated from human whole blood using Histopaque-1077 (Sigma, #10771) and frozen down and kept in liquid nitrogen tank. Two days before the assay PBMC was recovered and cultured in medium containing PHA-P (Sigma, #L1668). On the day of assay PBMC cells were pelleted down and resuspended in medium containing IL-2 (Sigma, #I7908), then the cells were mixed with HIV-1 strain NL4-3, MOI=0.01 (or IIIB, or CNHN24) and the cell/virus mixture was added to the aforementioned antivirus assay plates. […] The expression level of luciferase was related to HIV-1 infectivity and was measured by Bright-Glo kit (Promega).

HIV-1 strain IIIB [6] = assay: Anti-HIV-1 luciferase indicator assay in PBMC cells, IIIB; format: cell-based; details: Human immunodeficiency virus 1, IIIB, viral strain II B
Procedure: as §1, with “stock was” for “stock is”, “working plate” for “working plate,”
as §6, §7

HIV-1 strain CNHN24 [7] = assay: Anti-HIV-1 luciferase indicator assay in PBMC cells, CNHN24; format: cell-based; details: Human immunodeficiency virus 1, viral strain CNHN24
Procedure: as §1, with “stock was” for “stock is”, “working plate” for “working plate,”
as §6, §7

in vitro [8] = format: cell-based; details: human
Procedure: as §1, with “stock was” for “stock is”, “working plate” for “working plate,”
For the cytotoxicity assay, the same amount of PBMC cells as in the antivirus assay but without the HIV-1 virus, was added to the cytotoxicity plates. The cytotoxicity was measured by a CellTiter-Glo cell viability assay (Promega).

[9] = Human immunodeficiency virus 1, NL43, MT2, MT2 cells, read-out: IC50
[10] = Human immunodeficiency virus 1, IIIB, MT2, MT2 cells
[11] = Human immunodeficiency virus 1, MT2, MT2 cells

## C=C(C)[C@@H]1CC[C@]2(C(=O)O)CC[C@]3(C)[C@H](CC[C@@H]4[C@@]5(C)CC[C@H](OC(=O)[C@H]6C[C@@H](C(=O)O)C6(C)C)C(C)(C)[C@@H]5CC[C@]43C)[C@@H]12 [Example 19, (1R,3aS,5aR,5bR,7aR,9S,11aR,11bR,13aR,13bR)-9-((1S,3R)-3-carboxy-2,2-dimethylcyclobutanecarbonyloxy)-5a,5b,8,8,11a-pentamethyl-1-(prop-1-en-2-yl)icosahydro-1H-cyclopenta[a]chrysene-3a-carboxylic acid]
HIV-1 strain NL4-3 [1]; [9]
  IC50: 72 nM
HIV-1 strain NL4-3 [1]; MT2 cells
  TI / Safety Index (CC50/IC50): 277
HIV-1 strain IIIB [2]; [10]
  IC50: 21 nM
HIV-1 strain IIIB [2]; MT2 cells
  TI / Safety Index (CC50/IC50): 952
HIV-1 strain CNHN24 [3]; [11]
  IC50: 26 nM
HIV-1 strain CNHN24 [3]; MT2 cells
  TI / Safety Index (CC50/IC50): 769
In vitro [4]
  CC50: 20000 nM
other
  melting point: 308 to 310 °C

## C=C(C)[C@@H]1CC[C@]2(C(=O)N[C@@H]3C[C@H](C(=O)N4CCCCC4)C3(C)C)CC[C@]3(C)[C@H](CC[C@@H]4[C@@]5(C)CC[C@H](OC(=O)CC(C)(C)C(=O)O)C(C)(C)[C@@H]5CC[C@]43C)[C@@H]12 [Example 48, 4-((1R,3aS,5aR,5bR,7aR,9S,11aR,11bR,13aR,13bR)-3a-((1R,3S)-2,2-dimethyl-3-(piperidine-1-carbonyl)cyclobutylcarbamoyl)-5a,5b,8,8,11a-pentamethyl-1-(prop-1-en-2-yl)icosahydro-1H-cyclopenta[a]chrysen-9-yloxy)-2,2-dimethyl-4-oxobutanoic acid]
HIV-1 strain NL4-3 [1]; Human immunodeficiency virus 1, NL43, MT2, MT2 cells
  IC50: 9 nM
HIV-1 strain NL4-3 [1]; MT2 cells
  TI / Safety Index (CC50/IC50): 2072 and 1176
HIV-1 strain NL4-3 [1]; MT2 cells, read-out: IC50
  IC50: 17 nM
HIV-1 strain IIIB [2]; [10]
  IC50: 18 nM
HIV-1 strain IIIB [2]; MT2 cells
  TI / Safety Index (CC50/IC50): 1061 and 800
  IC50: 25 nM
HIV-1 strain CNHN24 [3]; [11]
  IC50: 11 nM
HIV-1 strain CNHN24 [3]; MT2 cells
  IC50: 21 nM
In vitro [4]
  CC50: > 20000 nM
MT2 cells
  CC50: 20000 nM

## C=C(C)[C@@H]1CC[C@]2(C(=O)N[C@@H]3C[C@H](C(=O)N4CCCC4)C3(C)C)CC[C@]3(C)[C@H](CC[C@@H]4[C@@]5(C)CC[C@H](OC(=O)CC(C)(C)C(=O)O)C(C)(C)[C@@H]5CC[C@]43C)[C@@H]12 [Example 45]
HIV-1 strain NL4-3 [1]; [9]
  IC50: 17 nM
HIV-1 strain NL4-3 [1]; MT2 cells
  TI / Safety Index (CC50/IC50): 1177
HIV-1 strain IIIB [2]; [10]
  IC50: 25 nM
HIV-1 strain IIIB [2]; MT2 cells
  TI / Safety Index (CC50/IC50): 800
HIV-1 strain CNHN24 [3]; [11]
  IC50: 22 nM
HIV-1 strain CNHN24 [3]; MT2 cells
  TI / Safety Index (CC50/IC50): 800
In vitro [4]
  CC50: 20000 nM
HIV-1 strain NL4-3 [5]
  IC50: 17 nM
HIV-1 strain IIIB [6]
  IC50: 25 nM
HIV-1 strain CNHN24 [7]
  IC50: 22 nM
In vitro [8]
  CC50: > 20000 nM

— patent US9067966B2, “Lupeol-type triterpene derivatives as antivirals” (priority 2009, dated 2015)
